Drawing on patent publication US12544361B2, “Composition comprising at least one oxazoline for inhibiting the growth of Malassezia yeasts involved in cradle cap, in particular” (Laboratoires Expanscience, priority 2019, dated 2026), this text covers MIC for three compounds.

Holding throughout (assay type): cell-based
The subject of assay [1] is Malassezia furfur (ATCC 14521). Briefly: MIC of arabinogalactan and malic acid diester in liquid medium, 96-well plates (GLYcoDiag technology). Particulars: 48 hours at 32.5° C., about 1.30-10^4 cfu/mL per well, strain ATCC 14521. As to the method:
The minimum inhibitory concentration (MIC) of arabinogalactan and malic acid diester is carried out using a procedure adapted to liquid media in 96-well plates. The MIC study is conducted using GLYcoDiag technology, using the microbial strain Malassezia furfur (American Type Culture Collection (ATCC) reference 14521) as the organism. The cultures are reconstituted according to the instructions of the collection center supplying the reference strain.
Preparation of samples and test microorganisms: the products are diluted in culture medium at the concentrations defined in the table below.
Analytical controls are prepared and used identically to the sample: • a control corresponding to the microbiological medium alone; and • a control consisting of Phenoxyethanol® prepared at 5% (v/v) directly in the microbiological medium associated with each microbial strain.
In order to determine the MIC of the product, it is tested in serial dilutions of 6 dilutions directly in the culture medium intended to promote the growth of the M. furfur strain (96-well microplates). Then, each dilution point is contaminated with the test strain in an amount of about 1.30-10^4 cfu/mL per well. Finally, the tests are incubated for 48 hours at 32.5° C.±2.5° C., taking care to respect the respiratory type of the strain which is facultative aero-anaerobic. […]

Assay [2] concerns Malassezia furfur (ATCC 14521). Briefly: MIC of cycloceramide OX100 in liquid medium, 96-well plates (GLYcoDiag technology). Particulars: 48 hours at 32.5° C., about 5.20-10^4 cfu/mL per well, strain ATCC 14521. As to the method: The determination of the minimum inhibitory concentration of cycloceramide OX100 is carried out by a procedure adapted to liquid media in 96-well plates. The MIC study is conducted using GLYcoDiag technology, using the microbial strain Malassezia furfur (American Type Culture Collection (ATCC) reference 14521) as the organism. The cultures are reconstituted according to the instructions of the collection center supplying the reference strain.
Preparation of samples and test microorganisms: OX100 cycloceramide is diluted in culture medium to the following concentrations: final concentrations in culture medium (expressed as percentages by volume): 0.25%; 0.125%; 0.0625%; 0.0312%; 0.01562%; 0.0078%.
Analytical controls are prepared and used identically to the sample: • a control corresponding to the microbiological medium alone; • a control consisting of Phenoxyethanol® prepared at 5% (v/v) directly in the microbiological medium associated with each microbial strain.
In order to determine the MIC of cycloceramide OX100, it is tested in serial dilutions of 6 dilutions directly in the culture medium intended to support the growth of the M. furfur strain (96-well microplates). Then, each dilution point is contaminated with the test strain in an amount of about 5.20-10^4 cfu/mL per well. Finally, the tests are incubated for 48 hours at 32.5° C. […]

Assay [3] concerns Malassezia furfur (CIP 1634.86). Kind of assay: MIC in solid medium by agar dilution method. Particulars: CIP1634, strain CIP 1634.86. As to the method:
Protocol: the minimum inhibitory concentration (MIC) of a strain of Malassezia furfur (CIP 1634.86) against cycloceramide OX100 is determined in solid medium by agar dilution method according to COURVALIN P., GOLDSTEIN F., PHILIPPON A. and SIROT J.-Fiche technique 5—L'antibiogramme, édition MPC, 1985, p. 199.
A general note: In agar dilution the substance is mixed into plates at graded concentrations.

Converted amounts (≈) assume the structure as drawn.

For arabinogalactan, the MIC in assay [1] is 2.5 % (v/v). Consider “di-C12-C13-alkyl malate [malic acid diester]”, for which the MIC in assay [1] is 1.25 % (v/v). For the compound `CCCCCCCCCCCC1=NC(C)(C)CO1` [OX100, 2-undecyl-4,4-dimethyl-1,3-oxazoline], the MIC in assay [2] was 0.031 % (v/v); in assay [3] it was 64 µg/mL (≈ 253 µM).
